Data as given in US20070219210A1, “Amidopyrazole Derivative” (Daiichi Pharmaceutical Co., LTD., priority 2003, published 2007).

Legend:
Cyclooxygenase-1 (COX-1) = biological target: T1, Cyclooxygenase-1 (COX-1) (Ovis aries, UniProt P05979); assay: COX Inhibitor Screening Assay Kit (Cayman), PGF2α by ELISA, COX-1; format: biochemical; details: compound at 50 μm; relative to PGF2α produced without compound (100%)
T1 construct: purchased Cayman Chemical Company 560101
T1 sequence (P05979 25-600): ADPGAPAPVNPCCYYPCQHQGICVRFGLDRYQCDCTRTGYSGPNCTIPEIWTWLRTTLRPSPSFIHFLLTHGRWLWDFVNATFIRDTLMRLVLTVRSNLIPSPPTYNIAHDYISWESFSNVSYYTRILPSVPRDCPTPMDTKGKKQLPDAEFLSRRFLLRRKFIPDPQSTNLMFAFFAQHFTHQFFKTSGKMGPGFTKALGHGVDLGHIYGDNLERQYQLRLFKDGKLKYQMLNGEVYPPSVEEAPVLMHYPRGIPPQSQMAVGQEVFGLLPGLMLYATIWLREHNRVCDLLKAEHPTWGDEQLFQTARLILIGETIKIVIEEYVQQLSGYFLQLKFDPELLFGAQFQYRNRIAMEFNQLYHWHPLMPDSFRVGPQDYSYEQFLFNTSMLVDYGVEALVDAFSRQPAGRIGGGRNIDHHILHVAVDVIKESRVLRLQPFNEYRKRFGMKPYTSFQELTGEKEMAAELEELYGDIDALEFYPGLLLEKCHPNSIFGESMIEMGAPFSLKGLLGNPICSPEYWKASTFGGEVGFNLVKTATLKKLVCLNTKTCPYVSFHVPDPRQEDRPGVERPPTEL
Experimental: (§1) Inhibitory activity against COX-1 and COX-2 of the compounds produced in the Examples was measured by using COX Inhibitor Screening Assay Kit (Catalog Nos. 560101 and 560121) purchased from Cayman Chemical Company.
(§2) Before starting the measurement, reaction buffer, heme, arachidonic acid, SnCl2, EIA buffer, washing buffer, prostaglandin (PG) screening EIA standard, PG screening acetylcholine esterase (AchE), tracer (chromogenic enzyme HRP conjugate), and PC screening EIA antiserum were prepared ready for use.
(§3) The reaction mixture containing the compound of the Examples (50 μM) and COX-1 or COX-2 was allowed to stand at 37° C. or 10 minutes, and after adding 10 μl of arachidonic acid, the solution was again allowed to stand at 37° C. for 2 minutes. After the reaction, the reaction was terminated by adding 50 μl of 1N-hydrochloric acid, and 100 μl solution of SnCl2 was added, and the reaction mixture was allowed to stand at room temperature for 5 minutes.
(§4) 50 μl of antiserum (rabbit anti-PGF2α antibody) was placed in the wells of 96 well plate that had been coated with mouse anti-rabbit IgG and 50 μl of the 2000-fold diluted PGF2α-containing liquid described above and 50 μl of AchE tracer were added to the well in this order, and the mixture was allowed to stand at room temperature for 18 hours. The wells were washed 5 times with the washing buffer to remove an excessive AchE tracer, and 200 μl of Ellman reagent was added. After leaving the plate in a dark room for 60 minutes, absorbance was measured at 405 nm.
(§5) A calibration curve was obtained by using the PG screening EIA standard, and the amount of PGF2α produced was determined from the absorption. Inhibitory rate at 50 μM of the compound of the Examples against COX-1 or COX-2 was calculated.
(§6) It is to be noted that the inhibitory rate was calculated in relation to the amount of the PGF2α produced by the reaction liquid free from the compounds of the Examples, which was taken 100%.

[1] = tested on: collagen-induced platelet coagulation; assay: Inhibitory effect on collagen-induced platelet coagulation in platelet rich plasma; format: cell-based; details: human platelet rich plasma, 37° C., coagulation induced with collagen; read-out: Inhibition of collagen-induced platelet coagulation, IC50
Experimental: Human blood was collected by using 1/10 volume of 3.13% sodium citrate as an anticoagulant, and the blood was centrifuged at 180 g for 10 minutes to separate platelet rich plasma (PRP), which was the upper layer. After collecting the upper layer PRP, the remaining lower layer was centrifuged at 1600 g for 10 minutes, and platelet poor plasma (PPP) in the upper layer was collected. 1 μl solution of the compound of the Examples was added to 200 μl of the PRP, and after allowing the sample to stand at 37° C. for 2 minutes, 2 μl of collagen was added in order to induce platelet coagulation. Platelet coagulation rate was measured with PAM-12C (SSR Engineering).

Cyclooxygenase-2 (COX-2) = biological target: T2, Cyclooxygenase-2 (COX-2) (Homo sapiens, UniProt P35354); assay: COX Inhibitor Screening Assay Kit (Cayman), PGF2α by ELISA, COX-2; format: biochemical; details: compound at 50 μm; relative to PGF2α produced without compound (100%)
T2 construct: purchased Cayman Chemical Company 560121
T2 sequence (P35354 18-604): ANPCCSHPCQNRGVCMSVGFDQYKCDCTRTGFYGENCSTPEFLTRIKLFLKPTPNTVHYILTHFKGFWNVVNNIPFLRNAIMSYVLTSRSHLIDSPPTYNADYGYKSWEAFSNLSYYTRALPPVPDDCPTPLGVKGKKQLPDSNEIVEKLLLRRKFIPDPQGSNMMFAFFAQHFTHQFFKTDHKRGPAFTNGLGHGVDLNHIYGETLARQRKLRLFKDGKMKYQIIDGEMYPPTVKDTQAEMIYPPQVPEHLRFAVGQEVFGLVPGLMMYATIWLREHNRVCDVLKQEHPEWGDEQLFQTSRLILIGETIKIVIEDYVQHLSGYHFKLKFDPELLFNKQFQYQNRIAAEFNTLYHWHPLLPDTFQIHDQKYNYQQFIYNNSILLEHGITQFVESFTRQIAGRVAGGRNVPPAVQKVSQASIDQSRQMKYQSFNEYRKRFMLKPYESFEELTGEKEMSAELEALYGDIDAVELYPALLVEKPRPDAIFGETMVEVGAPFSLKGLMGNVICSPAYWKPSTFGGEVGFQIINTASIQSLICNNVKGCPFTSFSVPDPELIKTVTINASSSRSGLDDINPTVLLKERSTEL
Experimental: as §1, §2, §3, §4, §5, §6

Structure (SMILES)	Inhibitory effect against COX-1 at 50 μm (% inhibition) (Cyclooxygenase-1 (COX-1))	IC50 [1]	Inhibitory effect against COX-2 at 50 μm (% inhibition) (Cyclooxygenase-2 (COX-2))
COc1ccc(-n2nc(C(=O)NC(C)(C)C)cc2-c2cc(CO)ccn2)cn1 [Example 4, N-tert-Butyl-5-(4-hydroxymethyl-2-pyridyl)-1-(6-methoxy-3-pyridyl)-1H-pyrazole-3-carboxamide]	−1.5 % inhibition	120 nM	−1.9 % inhibition
Cc1ccc(-n2nc(C(=O)NC(C)(C)C)cc2-c2ccccn2)cn1 [Example 8, N-tert-Butyl-1-(6-methyl-3-pyridyl)-5-(2-pyridyl)-1H-pyrazole-3-carboxamide]	−3.3 % inhibition	18 nM	3.9 % inhibition
COc1ccc(-n2nc(C(=O)NC(C)(C)C)cc2-c2cnccn2)cn1 [Example 13, N-tert-Butyl-1-(6-methoxy-3-pyridyl)-5-(2-pyrazinyl)-1H-pyrazole-3-carboxamide]	13.9 % inhibition	18 nM	9.2 % inhibition
COc1cnc(-n2nc(C(=O)NC(C)(C)C)cc2-c2ccccn2)cn1 [Example 15, N-tert-Butyl-1-(5-methoxy-2-pyrazinyl)-5-(2-pyridyl)-1H-pyrazole-3-carboxamide]	39.5 % inhibition	29 nM	6.9 % inhibition
CC(C)(C)NC(=O)c1cc(-c2ccc(O)cn2)n(-c2cccnc2)n1 [Example 22, N-tert-Butyl-5-(5-hydroxy-2-pyridyl)-1-(3-pyridyl)-1H-pyrazole-3-carboxamide]	0.8 % inhibition	210 nM	4.2 % inhibition
COc1ccc(-c2cc(C(=O)NC(C)(C)C)nn2-c2cccnc2)nc1 [Example 25, N-tert-Butyl-5-(5-methoxy-2-pyridyl)-1-(3-pyridyl)-1H-pyrazole-3-carboxamide]	4.7 % inhibition	18 nM	8.2 % inhibition
CC(C)(C)NC(=O)c1cc(-c2ccc(CO)cn2)n(-c2cccnc2)n1 [Example 26, N-tert-Butyl-5-(5-hydroxymethyl-2-pyridyl)-1-(3-pyridyl)-1H-pyrazole-3-carboxamide]	5.5 % inhibition	65 nM	8.2 % inhibition
CC(C)(C)NC(=O)c1cc(-c2ccc(Cl)cn2)n(-c2cccnc2)n1 [Example 28, N-tert-Butyl-5-(5-chloro-2-pyridyl)-1-(3-pyridyl)-1H-pyrazole-3-carboxamide]	5.4 % inhibition	8.9 nM	7.6 % inhibition
CC(C)(C)NC(=O)c1cc(-c2ccc(N)cn2)n(-c2cccnc2)n1 [Example 71]	7.9 % inhibition	23.1 nM	
CC(C)(C)NC(=O)c1cc(-c2ccc(CN)cn2)n(-c2ccccc2)n1 [Example 74, N-tert-Butyl-5-(5-aminomethyl-2-pyridyl)-1-phenyl-1H-pyrazole-3-carboxamide]	38.8 % inhibition	170 nM	
CC(C)(C)NC(=O)c1cc(-c2ccc(F)cn2)n(-c2cccnc2)n1 [Example 85, N-tert-Butyl-5-(5-fluoro-2-pyridyl)-1-(3-pyridyl)-1H-pyrazole-3-carboxamide]		54 nM	
CC(C)(C)NC(=O)c1cc(-c2cnc(N)cn2)n(-c2cccnc2)n1 [Example 95, N-tert-Butyl-5-(5-amino-2-pyrazinyl)-1-(3-pyridyl)-1H-pyrazole-3-carboxamide]	−9.1 % inhibition	160 nM	
CC(C)(CF)NC(=O)c1cc(-c2ccc(N)cn2)n(-c2cccnc2)n1 [Example 98, N-(2-Fluoro-1,1-dimethylethyl)-5-(5-amino-2-pyridyl)-1(3-pyridyl)-1H-pyrazole-3-carboxamide]	−20.4 % inhibition	43 nM	
CC(C)(CF)NC(=O)c1cc(-c2cnc(N)cn2)n(-c2cccnc2)n1 [Example 113, N-(2-Fluoro-1,1-dimethylethyl)-5-(5-amino-2-pyrazinyl)-1-(3-pyridyl)-1H-pyrazole-3-carboxamide]	−2.8 % inhibition	150 nM	
COc1ccc(-n2nc(C(=O)N(C)C)cc2-c2ccn(C)c2)cn1 [Example 116, N,N-Dimethyl-1-(6-methoxy-3-pyridyl)-5-(1-methyl-1H-pyrrol-3-yl)-1H-pyrazole-3-carboxamide]		20 nM	
Cc1ccc(-n2nc(C(=O)NC(C)(C)C)cc2-c2cn(C)cn2)cn1 [Example 122, N-tert-Butyl-5-(1-methyl-1H-imidazol-4-yl)-1-(6-methyl-3-pyridyl)-1H-pyrazole-3-carboxamide]		100 nM	
C#Cc1ccc(-c2cc(C(=O)NC(C)(C)CF)nn2-c2cccnc2)nc1 [Example 132, 5-(5-Ethynyl-2-pyridyl)-N-(2-fluoro-1,1-dimethylethyl)-1-(3-pyridyl)-1H-pyrazole-3-carboxamide]		32 nM	
CC(C)(C)NC(=O)c1cc(-c2ccc(CNS(C)(=O)=O)cn2)n(-c2cccnc2)n1 [Example 137, N-tert-Butyl-5-[5-(methanesulfonylamino)methyl-2-pyridyl]-1-(3-pyridyl)-1H-pyrazole-3-carboxamide]	−5.1 % inhibition	230 nM	
CC(=O)NCc1ccc(-c2cc(C(=O)NC(C)(C)C)nn2-c2cccnc2)nc1 [Example 138, N-tert-Butyl-5-[5-(acetylamino)methyl-2-pyridyl]-1-(3-pyridyl)-1H-pyrazole-3-carboxamide]	0.7 % inhibition	160 nM	
COC(=O)NCc1ccc(-c2cc(C(=O)NC(C)(C)C)nn2-c2cccnc2)nc1 [Example 139, Methyl {6-[5-(N-tert-butylcarbamoyl)-2-(3-pyridyl)-2H-pyrazol-3-yl]-3-pyridylmethyl}carbamate]	−25.8 % inhibition	71 nM	
Cc1ccc(-c2cc(C(=O)NC(C)(C)CO)nn2-c2cccnc2)nc1 [Example 152, N-(2-Hydroxy-1,1-dimethylethyl)-5-(5-methyl-2-pyridyl)-1-(3-pyridyl)-1H-pyrazole-3-carboxamide]	−8.7 % inhibition	110 nM	
